In patent publication US20230148258A1, “SPERMIDINE-SUPPLEMENTED FOOD PRODUCTS” (KALIN HEALTH LLC, priority 2020, published 2023):

Experiments:
[1] = NOAEL (No Observed Adverse Effect Level), Til et al. 1997
Excerpt: Food and Drug Administration GRAS Notice No. 889 Spermidine-Rich Wheat Germ Extract, the entirety of which is incorporated herein by reference. […] Til et al., Food and Chemical Toxicology 1997, v. 35, p. 337-348.

[2] = Til et al., Food and Chemical Toxicology 1997; cited from earlier work
[3] = animal models; 10 minutes after; cited from earlier work

SMILES	NOAEL expressed for a 70 kg person [1] [mg/day]	NOAEL (No Observed Adverse Effect Level) [2] [mg/kg body weight/day]	fraction of amount that reached the lumen found in the portal vein [3]
NCCCCNCCCN [spermidine]	~470	83	Approximately 70%
NCCCNCCCCNCCCN [spermine]	~106	1.52	Approximately 70%
